Data on two compounds can be found in patent US10844077B2, “Thiazolyl-containing compounds for treating proliferative diseases” (Dana-Farber Cancer Institute, Inc., priority 2014, dated 2020).

What all share (type): cell-based
Experiment [1] addresses kinases in BCWM.1 cells (Homo sapiens, UniProt Q99755). To be noted: PIP5K1A; ATP; 1 μM, 90 min; GF. As for the experimental part: (§1) The cells were harvested and lysed. […] Bound kinases were identified and quantitated by ACTIVX as described in Patricelli et al., Biochemistry, 2007, 46(2): 350-358. The compounds were tested in duplicates against duplicate or quadruplicate control samples.

In experiment [2] the target is kinases in BCWM.1 cells (Homo sapiens, UniProt P78356). To be noted: PIP4K2B; ATP; 1 μM, 90 min; GF. As for the experimental part:
as §1

The target in experiment [3] is kinases in BCWM.1 cells (Homo sapiens, UniProt O75582). To be noted: MSK1 domain1; Lys2; 1 μM; GF. As for the experimental part: as §1
For experiment [4], the target named is kinases in BCWM.1 cells (Homo sapiens, UniProt Q9Y2K2). To be noted: QSK; Lys2; 1 μM, 90 min; GF. As for the experimental part:
as §1

Experiment [5] addresses kinases in BCWM.1 cells (Homo sapiens, UniProt P06493). To be noted: CDC2; Protein Kinase Domain; 1 μM; GF. As for the experimental part: as §1
Experiment [6] deals with kinases in BCWM.1 cells (Homo sapiens, UniProt Q9UK32). To be noted: RSK4 domain1; Lys2; 1 μM, 90 min; GF. As for the experimental part:
as §1

Experiment [7] addresses kinases in BCWM.1 cells (Homo sapiens, UniProt P51451). To be noted: BLK; Activation Loop; 1 μM; GF. As for the experimental part:
as §1

For experiment [8], the target named is kinases in BCWM.1 cells (Homo sapiens, UniProt Q06187). To be noted: BTK; Activation Loop; 1 μM; GF. As for the experimental part:
as §1

Experiment [9] has as its target kinases in BCWM.1 cells (Homo sapiens, UniProt Q16566). To be noted: CaMK4; Lys2; 1 μM; GF. As for the experimental part:
as §1

Experiment [10] has as its target kinases in BCWM.1 cells (Homo sapiens, UniProt O94806). To be noted: PKD3; Lys1; 1 μM, 90 min; GF. As for the experimental part: as §1
Experiment [11] concerns the target kinases in BCWM.1 cells (Homo sapiens, UniProt Q8IVH8). To be noted: KHS2; Lys1; 1 μM; GF. As for the experimental part:
as §1

Experiment [12] addresses kinases in BCWM.1 cells (Homo sapiens, UniProt Q16513). To be noted: PKN2; Lys2; 1 μM, 90 min; GF. As for the experimental part: as §1
Experiment [13] has as its target kinases in BCWM.1 cells (Homo sapiens, UniProt Q14164). To be noted: IKKe; Lys1; 1 μM; GF. As for the experimental part:
as §1

Experiment [14] deals with kinases in BCWM.1 cells (Homo sapiens, UniProt O14936). To be noted: CASK; Lys1; 1 μM; GF. As for the experimental part: as §1
In experiment [15] the target is kinases in BCWM.1 cells (Homo sapiens, UniProt P45985). To be noted: MAP2K4; Lys2; 1 μM; GF. As for the experimental part:
as §1

In experiment [16] the target is kinases in BCWM.1 cells (Homo sapiens, UniProt P41743). To be noted: PKCi; Lys1; 1 μM, 90 min; GF. As for the experimental part:
as §1

Experiment [17] deals with kinases in BCWM.1 cells (Homo sapiens, UniProt P06241). To be noted: FYN; Lys1; 1 μM; GF. As for the experimental part:
as §1

Experiment [18] concerns the target kinases in BCWM.1 cells (Homo sapiens, UniProt O14976). To be noted: GAK; Lys2; 1 μM; GF. As for the experimental part: as §1
Experiment [19] concerns the target kinases in BCWM.1 cells (Homo sapiens, UniProt Q96GD4). To be noted: AurB; Lys1; 1 μM; GF. As for the experimental part: as §1
In experiment [20] the target is kinases in BCWM.1 cells (Homo sapiens, UniProt P49841). To be noted: GSK3B; Lys2; 1 μM; GF. As for the experimental part: as §1
In experiment [21] the target is kinases in BCWM.1 cells (Homo sapiens, UniProt Q16659). To be noted: Erk3; Lys2; 1 μM; GF. As for the experimental part:
as §1

Experiment [22] has as its target kinases in BCWM.1 cells (Homo sapiens, UniProt P24941). To be noted: CDK2; Lys2; 1 μM; GF. As for the experimental part:
as §1

Experiment [23] deals with kinases in BCWM.1 cells (Homo sapiens, UniProt P78368). To be noted: CK1g2; Lys2; 1 μM; GF. As for the experimental part: as §1
Experiment [24] deals with kinases in BCWM.1 cells (Homo sapiens, UniProt Q16584). To be noted: MLK3; Lys2; 1 μM; GF. As for the experimental part: as §1
Experiment [25] addresses kinases in BCWM.1 cells (Homo sapiens, UniProt P41279). To be noted: COT; ATP Loop; 1 μM; GF. As for the experimental part: as §1
In experiment [26] the target is kinases in BCWM.1 cells (Homo sapiens, UniProt Q8NB16). To be noted: MLKL; Lys1; 1 μM; GF. As for the experimental part: as §1
For experiment [27], the target named is kinases in BCWM.1 cells (Homo sapiens, UniProt O75676). To be noted: MSK2 domain1; Lys2; 1 μM; GF. As for the experimental part:
as §1

Experiment [28] addresses kinases in BCWM.1 cells (Homo sapiens, UniProt Q9Y616). To be noted: IRAK3; Lys1; 1 μM; GF. As for the experimental part:
as §1

Experiment [29] concerns the target kinases in BCWM.1 cells (Homo sapiens, UniProt P50750). To be noted: CDK9; Lys2; 1 μM; GF. As for the experimental part: as §1
The target in experiment [30] is kinases in BCWM.1 cells (Homo sapiens, UniProt P51956). To be noted: NEK3; Activation Loop; 1 μM, 90 min; GF. As for the experimental part:
as §1

“And” between values parts separate entries of the source, which are not always exact repeats. Identical values can stand only once. Where only a bound is given, the exact number is not on record here.

kinases in BCWM.1 cells (Homo sapiens, UniProt Q06187), sequence (Q06187 2-659 limits assumed): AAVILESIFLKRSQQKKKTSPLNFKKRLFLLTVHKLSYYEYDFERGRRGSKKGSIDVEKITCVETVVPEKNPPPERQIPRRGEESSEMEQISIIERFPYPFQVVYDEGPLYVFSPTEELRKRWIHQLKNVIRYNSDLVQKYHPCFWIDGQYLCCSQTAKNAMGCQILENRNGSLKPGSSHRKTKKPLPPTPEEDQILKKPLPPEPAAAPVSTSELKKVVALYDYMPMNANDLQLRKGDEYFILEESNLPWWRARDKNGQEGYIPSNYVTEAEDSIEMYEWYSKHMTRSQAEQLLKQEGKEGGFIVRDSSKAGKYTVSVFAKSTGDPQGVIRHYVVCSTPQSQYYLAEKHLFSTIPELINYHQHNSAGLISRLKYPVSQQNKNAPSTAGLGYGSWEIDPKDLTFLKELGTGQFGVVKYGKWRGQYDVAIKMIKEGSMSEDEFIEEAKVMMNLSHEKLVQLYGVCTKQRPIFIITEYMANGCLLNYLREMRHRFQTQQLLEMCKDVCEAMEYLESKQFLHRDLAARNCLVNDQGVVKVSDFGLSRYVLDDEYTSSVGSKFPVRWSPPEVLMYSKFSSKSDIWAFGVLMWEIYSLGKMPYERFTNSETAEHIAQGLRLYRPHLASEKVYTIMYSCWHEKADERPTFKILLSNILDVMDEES
kinases in BCWM.1 cells (Homo sapiens, UniProt P45985), sequence (P45985 2-399 limits assumed): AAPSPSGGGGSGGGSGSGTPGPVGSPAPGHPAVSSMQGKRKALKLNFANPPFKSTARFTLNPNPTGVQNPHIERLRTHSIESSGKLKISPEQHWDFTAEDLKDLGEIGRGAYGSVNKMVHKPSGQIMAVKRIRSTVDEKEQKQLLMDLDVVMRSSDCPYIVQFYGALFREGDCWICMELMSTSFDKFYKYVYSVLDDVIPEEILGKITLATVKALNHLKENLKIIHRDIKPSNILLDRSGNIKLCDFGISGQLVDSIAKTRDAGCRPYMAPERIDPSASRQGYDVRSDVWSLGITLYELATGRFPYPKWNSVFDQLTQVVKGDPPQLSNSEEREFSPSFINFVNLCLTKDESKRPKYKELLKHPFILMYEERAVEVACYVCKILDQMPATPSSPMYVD
kinases in BCWM.1 cells (Homo sapiens, UniProt P51451), sequence (P51451 2-505 limits assumed): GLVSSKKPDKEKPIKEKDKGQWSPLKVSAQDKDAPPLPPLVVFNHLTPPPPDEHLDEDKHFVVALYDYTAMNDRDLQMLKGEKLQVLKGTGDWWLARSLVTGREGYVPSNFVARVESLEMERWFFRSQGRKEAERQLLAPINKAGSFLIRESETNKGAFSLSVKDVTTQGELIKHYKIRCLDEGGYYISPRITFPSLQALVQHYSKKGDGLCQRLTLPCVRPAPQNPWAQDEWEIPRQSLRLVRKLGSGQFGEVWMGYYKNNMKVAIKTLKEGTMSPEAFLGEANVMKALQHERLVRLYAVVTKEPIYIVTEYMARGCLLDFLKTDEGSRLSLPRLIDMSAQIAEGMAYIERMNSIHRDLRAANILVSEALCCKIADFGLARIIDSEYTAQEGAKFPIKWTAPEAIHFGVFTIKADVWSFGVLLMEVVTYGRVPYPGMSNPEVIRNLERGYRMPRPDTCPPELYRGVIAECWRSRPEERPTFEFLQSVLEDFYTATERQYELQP
kinases in BCWM.1 cells (Homo sapiens, UniProt O14976), sequence (O14976 2-1311 limits assumed): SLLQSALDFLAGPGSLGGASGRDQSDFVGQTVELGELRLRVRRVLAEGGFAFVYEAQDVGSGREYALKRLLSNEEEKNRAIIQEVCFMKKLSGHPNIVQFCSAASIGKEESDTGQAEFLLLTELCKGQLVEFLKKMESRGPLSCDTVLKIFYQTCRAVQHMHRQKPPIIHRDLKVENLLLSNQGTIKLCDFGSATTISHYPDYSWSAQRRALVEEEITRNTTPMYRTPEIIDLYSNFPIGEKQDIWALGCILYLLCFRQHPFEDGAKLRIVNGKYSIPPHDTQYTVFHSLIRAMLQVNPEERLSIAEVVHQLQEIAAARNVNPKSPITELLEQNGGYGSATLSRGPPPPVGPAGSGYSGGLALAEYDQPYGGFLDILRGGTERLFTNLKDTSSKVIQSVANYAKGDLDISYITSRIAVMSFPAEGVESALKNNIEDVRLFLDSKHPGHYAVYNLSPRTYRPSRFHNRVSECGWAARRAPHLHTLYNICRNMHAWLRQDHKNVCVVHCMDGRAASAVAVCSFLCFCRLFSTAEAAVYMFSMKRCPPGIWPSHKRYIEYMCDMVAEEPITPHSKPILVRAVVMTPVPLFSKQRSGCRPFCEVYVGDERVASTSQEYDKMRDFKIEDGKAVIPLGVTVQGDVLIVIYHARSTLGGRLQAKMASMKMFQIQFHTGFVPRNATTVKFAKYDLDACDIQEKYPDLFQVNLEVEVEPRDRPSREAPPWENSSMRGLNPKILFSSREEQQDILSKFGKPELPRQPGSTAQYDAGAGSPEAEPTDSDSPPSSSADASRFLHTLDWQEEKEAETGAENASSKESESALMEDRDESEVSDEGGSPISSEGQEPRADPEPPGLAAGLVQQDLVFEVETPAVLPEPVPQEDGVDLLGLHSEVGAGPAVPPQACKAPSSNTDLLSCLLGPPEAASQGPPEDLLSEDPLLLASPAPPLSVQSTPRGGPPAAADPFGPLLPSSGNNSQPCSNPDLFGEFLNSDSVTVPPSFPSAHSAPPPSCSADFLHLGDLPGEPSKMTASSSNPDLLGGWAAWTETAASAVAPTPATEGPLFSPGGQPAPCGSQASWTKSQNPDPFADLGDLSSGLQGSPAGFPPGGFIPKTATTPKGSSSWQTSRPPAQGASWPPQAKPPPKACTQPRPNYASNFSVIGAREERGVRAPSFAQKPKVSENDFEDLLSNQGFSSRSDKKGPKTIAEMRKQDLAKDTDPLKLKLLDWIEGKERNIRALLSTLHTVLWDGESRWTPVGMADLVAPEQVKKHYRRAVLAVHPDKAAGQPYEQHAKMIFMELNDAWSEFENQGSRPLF
kinases in BCWM.1 cells (Homo sapiens, UniProt P41743), sequence (P41743 2-596 limits assumed): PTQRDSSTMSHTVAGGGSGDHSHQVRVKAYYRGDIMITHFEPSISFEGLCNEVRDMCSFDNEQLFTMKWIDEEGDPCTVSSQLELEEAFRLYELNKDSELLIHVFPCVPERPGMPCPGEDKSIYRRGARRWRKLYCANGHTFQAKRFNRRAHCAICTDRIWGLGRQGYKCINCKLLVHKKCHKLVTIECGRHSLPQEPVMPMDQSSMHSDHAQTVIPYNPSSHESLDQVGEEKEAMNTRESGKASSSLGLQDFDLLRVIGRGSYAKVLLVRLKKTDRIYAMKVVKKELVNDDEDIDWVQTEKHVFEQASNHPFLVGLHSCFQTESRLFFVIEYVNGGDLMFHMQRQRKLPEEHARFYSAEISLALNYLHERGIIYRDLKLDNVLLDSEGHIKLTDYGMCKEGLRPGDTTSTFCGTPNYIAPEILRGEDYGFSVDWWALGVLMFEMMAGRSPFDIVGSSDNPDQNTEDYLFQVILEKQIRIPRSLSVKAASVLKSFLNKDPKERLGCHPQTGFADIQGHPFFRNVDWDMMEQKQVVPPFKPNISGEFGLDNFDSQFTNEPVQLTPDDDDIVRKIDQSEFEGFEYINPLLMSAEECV
kinases in BCWM.1 cells (Homo sapiens, UniProt P78356), sequence (P78356 2-416 limits assumed): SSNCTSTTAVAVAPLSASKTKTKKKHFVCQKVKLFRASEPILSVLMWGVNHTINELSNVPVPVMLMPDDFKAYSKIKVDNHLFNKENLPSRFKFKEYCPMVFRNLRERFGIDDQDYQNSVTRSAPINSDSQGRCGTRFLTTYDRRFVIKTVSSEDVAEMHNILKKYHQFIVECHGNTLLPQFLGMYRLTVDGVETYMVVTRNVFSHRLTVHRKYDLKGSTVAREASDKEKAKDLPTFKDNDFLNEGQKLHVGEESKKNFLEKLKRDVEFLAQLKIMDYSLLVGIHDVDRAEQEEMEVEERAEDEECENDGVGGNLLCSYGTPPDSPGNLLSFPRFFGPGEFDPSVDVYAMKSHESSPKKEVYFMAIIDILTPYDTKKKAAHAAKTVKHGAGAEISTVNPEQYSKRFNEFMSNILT
kinases in BCWM.1 cells (Homo sapiens, UniProt P06241), sequence (P06241 2-537 limits assumed): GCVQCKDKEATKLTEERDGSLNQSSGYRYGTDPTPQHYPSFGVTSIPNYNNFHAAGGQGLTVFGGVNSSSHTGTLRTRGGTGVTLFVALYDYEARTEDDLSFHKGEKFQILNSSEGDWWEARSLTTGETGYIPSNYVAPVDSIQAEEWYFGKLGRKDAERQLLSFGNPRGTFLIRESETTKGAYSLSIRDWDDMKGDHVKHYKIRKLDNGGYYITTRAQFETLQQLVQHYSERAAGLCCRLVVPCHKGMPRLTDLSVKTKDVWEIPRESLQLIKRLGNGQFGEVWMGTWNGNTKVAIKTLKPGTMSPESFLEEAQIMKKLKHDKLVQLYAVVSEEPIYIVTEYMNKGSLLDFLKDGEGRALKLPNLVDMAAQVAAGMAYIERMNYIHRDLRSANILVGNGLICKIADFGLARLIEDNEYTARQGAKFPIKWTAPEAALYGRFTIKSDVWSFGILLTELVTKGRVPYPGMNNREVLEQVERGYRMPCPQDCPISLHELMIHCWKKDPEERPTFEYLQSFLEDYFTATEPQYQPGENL

As to `C=CC(=O)N1CC[C@H](Nc2nccc(Nc3ncc(C(=O)Nc4c(C)cccc4C)s3)n2)C1` [Example I-3], at kinases in BCWM.1 cells [1], the “% change of MS signal compared to control sample” value (“% change of MS signal” for short) was 30.5%.

On to `CCC(=O)N1CC[C@H](Nc2nccc(Nc3ncc(C(=O)Nc4c(C)cccc4C)s3)n2)C1` [Example I-9], for which the “% change of MS signal” value on kinases in BCWM.1 cells [2] is −19%; at kinases in BCWM.1 cells [3], −22.8% and −23.9%; at kinases in BCWM.1 cells [4], 2.5%; on kinases in BCWM.1 cells [5], −2.6% and −3.2%; on kinases in BCWM.1 cells [6] it was 15.8%; at kinases in BCWM.1 cells [7], 93.7% and 95.4%. Further, the “% change of MS signal” value is 96.7% and 70.7% at kinases in BCWM.1 cells [8]; −10.3% and −13.1% at kinases in BCWM.1 cells [9]; −9.2% at kinases in BCWM.1 cells [10]; −23.6% and −22.7% at kinases in BCWM.1 cells [11]; 13.6% on kinases in BCWM.1 cells [12]; −12.6% and −6.1% on kinases in BCWM.1 cells [13]. In addition, the “% change of MS signal” value on kinases in BCWM.1 cells [14] is −10.4%; on kinases in BCWM.1 cells [15], −5.4% and −2.1%; at kinases in BCWM.1 cells [16], 18.6%; on kinases in BCWM.1 cells [17], greater than 91%; on kinases in BCWM.1 cells [18], 33.8%; on kinases in BCWM.1 cells [19] it was −20.6% and −21.5%. The “% change of MS signal” value was −9.8% and −1.3% at kinases in BCWM.1 cells [20]; 16.9% and 25.3% at kinases in BCWM.1 cells [21]; −8.7% and −4.3% at kinases in BCWM.1 cells [22]; −8.9% and −10.9% at kinases in BCWM.1 cells [23]; 24.1% at kinases in BCWM.1 cells [24]; −37.3% and −40.3% at kinases in BCWM.1 cells [25]. Further, the “% change of MS signal” value on kinases in BCWM.1 cells [26] was −4.7% and −3.9%; on kinases in BCWM.1 cells [27], −27% and −18.7%; on kinases in BCWM.1 cells [28], 7.2% and −1.4%; at kinases in BCWM.1 cells [29] it was 32.7% and 23.1%; at kinases in BCWM.1 cells [30], −3.2%.
